Structures are written as SMILES. Numbering of substitutions follows the chain as printed. Read-outs that look alike come from different tables or passages of the source.

The target in one experiment is T1, mutant MGL (Homo sapiens, UniProt Q99685, L169S/L176S).
T1 sequence (Q99685 1-303 L169S/L176S): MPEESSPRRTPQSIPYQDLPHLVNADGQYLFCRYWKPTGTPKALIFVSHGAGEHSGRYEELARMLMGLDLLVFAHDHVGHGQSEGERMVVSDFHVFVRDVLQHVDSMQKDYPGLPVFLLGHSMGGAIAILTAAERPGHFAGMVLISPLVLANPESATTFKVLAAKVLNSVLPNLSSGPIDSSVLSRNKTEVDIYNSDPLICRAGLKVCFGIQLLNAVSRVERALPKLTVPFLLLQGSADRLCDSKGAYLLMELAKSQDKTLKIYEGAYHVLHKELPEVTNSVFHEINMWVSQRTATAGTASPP
As to the kind of experiment: MGL ThermoFluor assay - mutant. It is filed as binding.

In another experiment the target is T2, MGL (Rattus norvegicus, UniProt Q8R431).
T2 construct: one g rat brain was homogenized using a Polytron homogenizer; from tissue; host or cells: rat brain homogenate
T2 sequence (Q8R431 1-303): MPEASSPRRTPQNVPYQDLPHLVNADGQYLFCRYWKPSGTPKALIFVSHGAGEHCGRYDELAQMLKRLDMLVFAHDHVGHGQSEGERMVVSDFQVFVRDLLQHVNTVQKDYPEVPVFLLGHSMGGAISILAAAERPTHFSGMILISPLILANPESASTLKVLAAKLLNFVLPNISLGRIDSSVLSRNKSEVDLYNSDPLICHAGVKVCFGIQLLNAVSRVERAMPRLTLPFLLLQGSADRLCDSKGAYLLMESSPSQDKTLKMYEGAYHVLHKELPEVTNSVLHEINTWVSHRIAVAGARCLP
The experiment is described as follows: 2-AG accumulation assay in rat brain homogenate. The experiment is classed as biochemical. The settings on record: rat brain homogenate; compound 1 μM; 2-AG accumulation as percent of vehicle; read-out: Rat Brain 2AG % VehCntrl (%) @ 1 μM.

Experiment [1] has as its target T3, purified wild type MGL (wt-MGLL 6H-11-313) (Homo sapiens, UniProt Q99685).
T3 sequence (Q99685 1-303): T1 sequence (Q99685 1-303 L169S/L176S) with S169L, S176L

Where [2] appears, read: ThermoFluor concentration-response, read-out: MGL mutant ThermoFluor Kd.
Setting [3] is: ThermoFluor thermal stability binding assay, read-out: MGL mutant ThermoFluor Kd.
The mark [4] stands for this setting: ThermoFluor, compound concentration measured by qNMR, read-out: MGL mutant ThermoFluor qKd (using qNMR conc.).
Where [5] appears, read: ThermoFluor, compound concentration measured by qNMR, read-out: MGL mutant ThermoFluor qKd (μM) (using qNMR conc.).

Regarding `Cn1cc(I)c2ccc(C(=O)N3CC(N4CCN(C(=O)c5nccs5)CC4)C3)cc21` [Cpd 701], the Kd at mutant MGL (setting [2]) is 0.008 µM. For the same compound, on MGL, the 2-AG accumulation, % of vehicle control at 1 µM turned out to be 475%. Moreover, in experiment [1], 77 nM corresponded to half-maximal inhibition (IC50).

With `O=C(c1nccs1)N1CCN(C2CN(C(=O)c3cccc4oc(-c5ccccc5Cl)nc34)C2)CC1` [Cpd 1173], the Kd at mutant MGL (setting [3]) was determined as 0.007 µM. Besides, the 2-AG accumulation, % of vehicle control at 1 µM on MGL was found to be 133%. For the same compound, the concentration for half-maximal inhibition (IC50) (usually the concentration that gives 50% inhibition) in experiment [1] was found to be 65 nM.

For the compound `O=C(c1ccc2c(-c3ccc(F)cc3)c[nH]c2c1)N1CC(N2CCN(C(=O)c3nccs3)CC2)C1` [Cpd 1317, 3-(4-Fluorophenyl)-6-({3-[4-(1,3-thiazol-2-ylcarbonyl)piperazin-1-yl]azetidin-1-yl}carbonyl)-1H-indole], the Kd on mutant MGL (setting [2]) stood at 0.002 µM. Besides, the 2-AG accumulation, % of vehicle control at 1 µM at MGL was found to be 722%. Moreover, the IC50 in experiment [1] was below 5 nM.

As for `Cc1cccc(-n2ccc3cc(C(=O)N4CC(N5CCN(C(=O)c6nccs6)CC5)C4)ccc32)n1` [Cpd 1126, 1-(6-Methylpyridin-2-yl)-5-({3-[4-(1,3-thiazol-2-ylcarbonyl)piperazin-1-yl]azetidin-1-yl}carbonyl)-1H-indole], at mutant MGL (setting [4]), the Kd turned out to be 0.008 µM. Besides, the 2-AG accumulation, % of vehicle control at 1 µM on MGL was 850%. The same compound had an IC50 in experiment [1] of 19 nM.

In the case of `O=C(c1cscn1)N1CCN(C2CN(C(=O)c3sc4ccc(Cl)cc4c3C(F)(F)F)C2)CC1` [Cpd 673], the Kd at mutant MGL (setting [2]) came out at 0.05 µM. Moreover, on MGL, the 2-AG accumulation, % of vehicle control at 1 µM amounted to 280%. In experiment [1], this compound displayed a concentration for half-maximal inhibition (IC50) of 17 nM.

Turning to `O=C(c1nccs1)N1CCN(C2CN(C(=O)c3sc4cc(-c5ccccc5)ccc4c3C(F)(F)F)C2)CC1` [Cpd 1095, 1-(1-{[6-Phenyl-3-(trifluoromethyl)-1-benzothiophen-2-yl]carbonyl}azetidin-3-yl)-4-(1,3-thiazol-2-ylcarbonyl)piperazine], the Kd on mutant MGL (setting [2]) was found to be 0.011 µM. Further, at MGL, the 2-AG accumulation, % of vehicle control at 1 µM is 484%. Moreover, in experiment [1], the IC50 was found to be 11 nM.

For `O=C(c1ccc2c(ccn2-c2ccc(C(F)(F)F)nc2)c1)N1CC(N2CCN(C(=O)c3nccs3)CC2)C1` [Cpd 1312, 5-({3-[4-(1,3-Thiazol-2-ylcarbonyl)piperazin-1-yl]azetidin-1-yl}carbonyl)-1-[6-(trifluoromethyl)pyridin-3-yl]-1H-indole], on mutant MGL (setting [4]), the Kd came out at 0.008 µM. For the same compound, on MGL, the 2-AG accumulation, % of vehicle control at 1 µM worked out at 963%. In addition, the IC50 in experiment [1] was below 5 nM.

In the case of `O=C(c1ccc(-c2cccc(C(F)(F)F)c2)cc1)N1CCN(C2CN(C(=O)c3cscn3)C2)CC1` [Cpd 1067, 1-[1-(1,3-Thiazol-4-ylcarbonyl)azetidin-3-yl]-4-{[3′-(trifluoromethyl)biphenyl-4-yl]carbonyl}piperazine], on mutant MGL (setting [2]), the Kd is 0.007 µM. Besides, the 2-AG accumulation, % of vehicle control at 1 µM at MGL worked out at 408%. For the same compound, in experiment [1], half-maximal inhibition (IC50) required 7 nM.

As to `O=C(c1ccc2c(ccn2-c2ccc(C(F)(F)F)nc2)c1)N1CC(N2CCN(C(=O)c3ccc[nH]3)CC2)C1` [Cpd 1062, 5-({3-[4-(1H-Pyrrol-2-ylcarbonyl)piperazin-1-yl]azetidin-1-yl}carbonyl)-1-[6-(trifluoromethyl)pyridin-3-yl]-1H-indole], the Kd at mutant MGL (setting [4]) worked out at 0.1 µM. The 2-AG accumulation, % of vehicle control at 1 µM on MGL was found to be 451%. Besides, in experiment [1], the 50% inhibitory concentration (IC50) stood at 7 nM.

As for `Cc1sc(C(=O)N2CC(N3CCN(C(=O)c4nccs4)CC3)C2)cc1-c1ccc(F)cc1` [Cpd 1096], on mutant MGL (setting [5]), the Kd was determined as 0.08 µM. The 2-AG accumulation, % of vehicle control at 1 µM at MGL turned out to be 449%. The same compound displayed an IC50 in experiment [1] of 11 nM.

With `O=C(c1ccccc1)N1CCN(C2CN(C(=O)c3ccc(S(=O)(=O)c4cccc(C(F)(F)F)c4)cc3)C2)CC1` [Cpd 508], at mutant MGL (setting [2]), the Kd worked out at 0.162 µM. Moreover, the 2-AG accumulation, % of vehicle control at 1 µM at MGL was found to be 119%. In experiment [1], the half-maximal inhibitory concentration (IC50) is 107 nM.

On to `COc1ccc(-n2ccc3cc(C(=O)N4CC(N5CCN(C(=O)c6nccs6)CC5)C4)ccc32)cn1` [Cpd 1072, 1-(6-Methoxypyridin-3-yl)-5-({3-[4-(1,3-thiazol-2-ylcarbonyl)piperazin-1-yl]azetidin-1-yl}carbonyl)-1H-indole], for which the Kd on mutant MGL (setting [4]) was 0.007 µM. For the same compound, on MGL, the 2-AG accumulation, % of vehicle control at 1 µM was 839%. In experiment [1], this compound showed an IC50 of 8 nM.

On to `O=C(c1nccs1)N1CCN(C2CN(C(=O)c3[nH]c4nc(C(F)(F)F)ccc4c3Br)C2)CC1` [Cpd 675], for which the Kd on mutant MGL (setting [4]) is 0.025 µM. In addition, the 2-AG accumulation, % of vehicle control at 1 µM at MGL is 330%. In experiment [1], this compound gave an IC50 of 19 nM.

`Cc1cc(C(=O)N2CC(N3CCN(C(=O)c4cscn4)CC3)C2)ccc1-c1ccc(F)c(Cl)c1` [Cpd 257, 1-{1-[(3′-Chloro-4′-fluoro-2-methylbiphenyl-4-yl)carbonyl]azetidin-3-yl}-4-(1,3-thiazol-4-ylcarbonyl)piperazine]: at mutant MGL (setting [3]), the Kd came out at 0.0033 µM. Also, the 2-AG accumulation, % of vehicle control at 1 µM on MGL came to 285%. This compound also registered an IC50 in experiment [1] below 5 nM.

`O=C(c1nccs1)N1CCN(C2CN(C(=O)c3sc4cc(F)ccc4c3C3CCC3)C2)CC1` [Cpd 695]: on mutant MGL (setting [2]), the Kd was 0.001 µM. Besides, the 2-AG accumulation, % of vehicle control at 1 µM on MGL was found to be 497%. In experiment [1], this compound returned an IC50 of 57 nM.

`O=C(c1cscn1)N1CCN(C2CN(C(=O)c3sc4cc(Cl)ccc4c3C(F)(F)F)C2)CC1` [Cpd 699]: the Kd at mutant MGL (setting [2]) was found to be 0.041 µM. Besides, the 2-AG accumulation, % of vehicle control at 1 µM at MGL worked out at 253%. In experiment [1], this compound showed an IC50 of 69 nM.

Regarding `Cc1sc(C(=O)N2CC(N3CCN(C(=O)c4nccs4)CC3)C2)cc1-c1cccc(C(F)(F)F)c1` [Cpd 1351], the Kd at mutant MGL (setting [5]) came to 0.043 µM. Moreover, at MGL, the 2-AG accumulation, % of vehicle control at 1 µM is 718%. In addition, the IC50 in experiment [1] is below 5 nM.

In the case of `O=C(c1ccc(-c2ccccc2)cc1)N1CCN(C2CN(C(=O)c3ccns3)C2)CC1` [Cpd 1235, 1-(Biphenyl-4-ylcarbonyl)-4-[1-(isothiazol-5-ylcarbonyl)azetidin-3-yl]piperazine], on mutant MGL (setting [2]), the Kd amounted to 0.124 µM. For the same compound, on MGL, the 2-AG accumulation, % of vehicle control at 1 µM stood at 100%. Besides, in experiment [1], the 50% inhibitory concentration (IC50) came out at 360 nM.

Take `Cn1ccc2cc(C(=O)N3CC(N4CCN(C(=O)c5nccs5)CC4)C3)cc(-c3cccc(F)c3)c21` [Cpd 1066]: on mutant MGL (setting [5]), the Kd amounted to 0.031 µM. The 2-AG accumulation, % of vehicle control at 1 µM at MGL was found to be 609%. Also, the concentration for half-maximal inhibition (IC50) in experiment [1] came out at 7 nM.

Turning to `Cc1c(C(=O)N2CC(N3CCN(C(=O)c4cscn4)CC3)C2)sc2ccc(C(F)(F)F)cc12` [Cpd 898], at mutant MGL (setting [3]), the Kd is 0.009 µM. On MGL, the 2-AG accumulation, % of vehicle control at 1 µM came out at 520%. Also, the IC50 in experiment [1] was below 5 nM.

Regarding `CCCCCCCC/C=C\CCCCCCCC(=O)N1CC(N2CCN(C(=O)c3nccs3)CC2)C1` [Cpd 641], the Kd at mutant MGL (setting [2]) turned out to be 0.118 µM; on mutant MGL (setting [4]), 0.136 µM. The 2-AG accumulation, % of vehicle control at 1 µM at MGL is 397%. In experiment [1], this compound returned an IC50 below 5 nM.

Regarding `N#Cc1cccc(-c2ccc(C(=O)N3CC(N4CCN(C(=O)c5nccs5)CC4)C3)cc2)c1` [Cpd 161, 4′-({3-[4-(1,3-Thiazol-2-ylcarbonyl)piperazin-1-yl]azetidin-1-yl}carbonyl)biphenyl-3-carbonitrile], on mutant MGL (setting [2]), the Kd is 0.0112 µM. Also, the 2-AG accumulation, % of vehicle control at 1 µM at MGL turned out to be 335%. In experiment [1], this compound had an IC50 of 11.7 nM.

`O=C(c1cscn1)N1CCN(C2CN(C(=O)c3sc4c(C(F)(F)F)c(F)ccc4c3Cl)C2)CC1` [Cpd 697]: at mutant MGL (setting [5]), the Kd was 0.024 µM. Moreover, the 2-AG accumulation, % of vehicle control at 1 µM at MGL was 431%. In addition, half-maximal inhibition in experiment [1] (IC50) required 62 nM.

For the compound `O=C(c1nccs1)N1CCN(C2CN(C(=O)c3sc4ccc5ccccc5c4c3Cl)C2)CC1` [Cpd 890], at mutant MGL (setting [2]), the Kd turned out to be 0.001 µM. Further, on MGL, the 2-AG accumulation, % of vehicle control at 1 µM stood at 823%. This compound also displayed an IC50 in experiment [1] below 5 nM.

`O=C(c1nccs1)N1CCN(C2CN(C(=O)c3sc4ccc(-c5ccccc5)cc4c3F)C2)CC1` [Cpd 1315, 1-{1-[(3-Fluoro-5-phenyl-1-benzothiophen-2-yl)carbonyl]azetidin-3-yl}-4-(1,3-thiazol-2-ylcarbonyl)piperazine]: the Kd on mutant MGL (setting [2]) was found to be 0.002 µM. Further, the 2-AG accumulation, % of vehicle control at 1 µM at MGL is 486%. The same compound registered a 50% inhibitory concentration (IC50) in experiment [1] below 5 nM.

On to `O=C(c1nccs1)N1CCN(C2CN(C(=O)c3cc(-c4ccccc4)ccc3F)C2)CC1` [Cpd 1208], for which, at mutant MGL (setting [2]), the Kd was determined as 1 µM. For the same compound, the 2-AG accumulation, % of vehicle control at 1 µM on MGL was 212%. The midpoint of inhibition in experiment [1], the IC50, lay at 190 nM.

These data come from patent US8362000B2, “Azetidinyl diamides as monoacylglycerol lipase inhibitors” (Janssen Pharmaceutica NV, priority 2009, dated 2013).
